Source: patent US20230322715A1, “BROAD SPECTRUM ANTI-CANCER COMPOUNDS” (The Regents of the University of California, priority 2019, published 2023)
Like-named read-outs stand apart in the source and are kept apart here.

Tests used:
FTO = FTO (Homo sapiens (Human), UniProt Q9C0B1); assay: Fluorescence enzymatic inhibition assay (m6A7-Broccoli RNA / DFHBI-1T) against FTO; type: biochemical; conditions: m6A7-Broccoli fluorescence assay, 0.250 μM FTO, inhibitor up to 40 μM, triplicate; read-out: Enzymatic IC50 FTO
Procedure: In order to determine their efficacy as FTO inhibitors, the compounds were screened by a fluorescence enzymatic inhibition assay developed previously by the Jaffrey lab.^44 Briefly, a nonfluorescent methylated RNA substrate termed “m6A7-Broccoli” is incubated with FTO in the presence of 2-oxoglutarate (300 μM), (NH4)2Fe(SO4)2·6H2O (300 μM), and L-ascorbate (2 mM) for 2 hours at room temperature in reaction buffer (50 mM NaHEPES, pH 6).
(§1) Inhibitors were added in concentrations ranging from 0.008-40 μM; all inhibitors were dissolved in DMSO and added to a final concentration of 0.2% DMSO. […] After incubation at room temperature for 2 hours, the plates were left at 4° C. overnight (16 hours) to allow DFHBI-1T to bind to A7-Broccoli RNA. […] Sigmoidal dose-response curves were fitted in GraphPad Prism 6. All assays were performed in triplicate, with additional repetitions added as necessary.

ALKBH5 = ALKBH5 (Homo sapiens (Human), UniProt Q6P6C2); assay: Fluorescence enzymatic inhibition assay (m6A7-Broccoli RNA / DFHBI-1T) against ALKBH5; type: biochemical; conditions: m6A7-Broccoli fluorescence assay, 0.250 μM ALKBH5; read-out: Enzymatic IC50 ALKBH5
Procedure: as §1

[1] = elogD / log D determination
YTHDF2 = YTHDF2 (Homo sapiens (Human), UniProt Q9Y5A9); assay: In vitro FRET assay for binding affinities of YTH inhibitors, YTHDF2
Description: (§2) FIG. 8-2 depicts possible design and synthesis of compound libraries. In Vitro FRET assay development could yield a high throughput FRET assay to determine binding affinities for potential YHT inhibitors against YTHDF1, YTHDF2, YTHDF3, or other similar proteins.

YTHDF1 = YTHDF1 (Homo sapiens (Human), UniProt Q9BYJ9); assay: In vitro FRET assay for binding affinities of YTH inhibitors, YTHDF1
Description: as §2

[2] = test system: cancer cells by cancer type; conditions: read-out: EC50 of Chemo SOC, cited from earlier work
[3] = Ki values for YTH library against YTHDF2, read-out: Ki

Sequence of YTHDF1 (Q9BYJ9 whole entry): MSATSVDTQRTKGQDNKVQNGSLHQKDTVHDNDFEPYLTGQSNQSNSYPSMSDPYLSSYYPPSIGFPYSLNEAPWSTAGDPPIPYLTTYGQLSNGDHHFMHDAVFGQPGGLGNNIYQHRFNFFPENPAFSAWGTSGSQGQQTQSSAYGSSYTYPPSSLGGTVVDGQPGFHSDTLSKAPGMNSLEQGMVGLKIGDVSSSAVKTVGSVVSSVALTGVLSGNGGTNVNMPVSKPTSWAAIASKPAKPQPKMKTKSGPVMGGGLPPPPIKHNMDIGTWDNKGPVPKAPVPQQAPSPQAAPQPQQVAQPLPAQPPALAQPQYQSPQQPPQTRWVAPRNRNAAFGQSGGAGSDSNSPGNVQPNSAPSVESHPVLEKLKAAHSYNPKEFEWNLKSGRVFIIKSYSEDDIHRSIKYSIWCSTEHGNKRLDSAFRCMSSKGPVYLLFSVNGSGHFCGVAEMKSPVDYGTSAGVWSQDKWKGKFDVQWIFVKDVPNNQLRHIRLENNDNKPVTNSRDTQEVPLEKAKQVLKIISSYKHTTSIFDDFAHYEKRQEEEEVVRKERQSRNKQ
Sequence of YTHDF2 (Q9Y5A9 whole entry): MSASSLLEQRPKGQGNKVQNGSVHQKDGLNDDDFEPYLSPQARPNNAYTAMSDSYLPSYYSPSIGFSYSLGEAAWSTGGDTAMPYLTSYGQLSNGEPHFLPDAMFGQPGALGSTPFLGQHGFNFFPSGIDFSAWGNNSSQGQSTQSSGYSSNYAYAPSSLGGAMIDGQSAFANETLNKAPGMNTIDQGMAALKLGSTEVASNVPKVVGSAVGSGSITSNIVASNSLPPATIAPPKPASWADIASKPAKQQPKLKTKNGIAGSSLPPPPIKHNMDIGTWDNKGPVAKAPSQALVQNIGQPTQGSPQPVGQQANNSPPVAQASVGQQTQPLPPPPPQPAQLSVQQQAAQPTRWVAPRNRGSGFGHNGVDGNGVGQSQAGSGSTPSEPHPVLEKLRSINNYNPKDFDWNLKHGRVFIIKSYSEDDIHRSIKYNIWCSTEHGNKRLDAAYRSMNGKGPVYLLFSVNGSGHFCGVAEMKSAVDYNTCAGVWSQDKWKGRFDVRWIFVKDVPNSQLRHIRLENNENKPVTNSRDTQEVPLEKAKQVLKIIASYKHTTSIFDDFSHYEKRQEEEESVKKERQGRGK
Sequence of FTO (Q9C0B1 whole entry): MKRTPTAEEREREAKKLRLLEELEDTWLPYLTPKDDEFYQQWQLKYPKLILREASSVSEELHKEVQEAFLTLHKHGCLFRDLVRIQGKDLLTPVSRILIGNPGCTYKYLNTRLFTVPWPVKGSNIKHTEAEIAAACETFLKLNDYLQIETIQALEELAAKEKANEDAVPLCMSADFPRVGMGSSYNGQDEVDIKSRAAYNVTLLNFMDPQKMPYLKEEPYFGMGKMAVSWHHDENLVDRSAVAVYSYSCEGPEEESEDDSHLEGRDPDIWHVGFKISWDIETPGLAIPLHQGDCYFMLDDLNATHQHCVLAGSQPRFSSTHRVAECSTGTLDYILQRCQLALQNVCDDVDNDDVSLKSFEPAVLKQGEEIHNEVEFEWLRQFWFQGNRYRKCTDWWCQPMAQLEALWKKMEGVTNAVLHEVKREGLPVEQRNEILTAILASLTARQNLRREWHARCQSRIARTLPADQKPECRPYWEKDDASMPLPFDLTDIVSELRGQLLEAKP
Sequence of ALKBH5 (Q6P6C2 whole entry): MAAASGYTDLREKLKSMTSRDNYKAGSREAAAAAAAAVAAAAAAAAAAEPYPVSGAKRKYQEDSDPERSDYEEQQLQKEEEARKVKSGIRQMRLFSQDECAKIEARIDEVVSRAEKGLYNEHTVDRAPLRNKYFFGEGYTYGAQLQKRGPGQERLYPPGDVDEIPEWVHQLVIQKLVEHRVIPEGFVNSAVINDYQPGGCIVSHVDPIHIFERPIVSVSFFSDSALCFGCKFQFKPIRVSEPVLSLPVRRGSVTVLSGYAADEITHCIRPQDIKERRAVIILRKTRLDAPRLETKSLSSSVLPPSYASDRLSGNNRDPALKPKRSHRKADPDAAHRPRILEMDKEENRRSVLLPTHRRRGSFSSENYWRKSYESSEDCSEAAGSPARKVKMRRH

Q: Which results are given for FC1CCN(C2(CNCc3ccc(-c4ccccc4)o3)COC2)C1 (stereo not shown) [TR-FTO-48]?
A: IC50 (FTO): 2000 nM; IC50 (ALKBH5): 2600 nM; elogD [1]: 1.34

Q: With COc1ccc(CNc2ccc(CNC3CC3)cn2)cc1 [TR-YTH-01] as the molecule, how does the Ki (YTHDF2; [3]) read?
A: 102 ± 15 pM

Q: And the Ki (YTHDF2; read-out: Ki (pM) YTHDF2)?
A: 102 ± 15 pM

Q: What about the Ki (YTHDF2; read-out: Ki YTHDF2) of the same molecule?
A: 102 ± 15 pM

Q: And the Ki (YTHDF1; read-out: Ki (pM) YTHDF1)?
A: 164 ± 21 pM

Q: What about the Ki (YTHDF1; read-out: Ki YTHDF1) of the same molecule?
A: 164 ± 21 pM

Q: Which results are given for COc1ccc(CNc2ccc(CNC3CC3)cn2)c(OC)c1 [TR-YTH-02]?
A: Ki (YTHDF2; [3]): 182 ± 69 pM; Ki (YTHDF2; read-out: Ki (pM) YTHDF2): 182 ± 69 pM; Ki (YTHDF2; read-out: Ki YTHDF2): 182 ± 69 pM; Ki (YTHDF1; read-out: Ki (pM) YTHDF1): 229 ± 57 pM; Ki (YTHDF1; read-out: Ki YTHDF1): 229 ± 57 pM

Q: With COc1ccc(CNc2ccc(CNC3CC3)cn2)cc1OC [TR-YTH-03] as the molecule, how does the Ki (YTHDF2; [3]) read?
A: 85 ± 26 pM

Q: What about the Ki (YTHDF2; read-out: Ki (pM) YTHDF2) of the same molecule?
A: 85 ± 26 pM

Q: And the Ki (YTHDF2; read-out: Ki YTHDF2)?
A: 85 ± 26 pM

Q: And the Ki (YTHDF1; read-out: Ki (pM) YTHDF1)?
A: 123 ± 6 pM

Q: And the Ki (YTHDF1; read-out: Ki YTHDF1)?
A: 123 ± 6 pM

Q: With CC(Nc1ccc(CNC2CC2)cn1)c1ccccc1 (stereo not shown) [TR-YTH-04] as the molecule, how does the Ki (YTHDF2; [3]) read?
A: 100 ± 34 pM

Q: And the Ki (YTHDF2; read-out: Ki (pM) YTHDF2)?
A: 100 ± 34 pM

Q: What about the Ki (YTHDF2; read-out: Ki YTHDF2) of the same molecule?
A: 100 ± 34 pM

Q: And the Ki (YTHDF1; read-out: Ki (pM) YTHDF1)?
A: 129 ± 6 pM

Q: What about the Ki (YTHDF1; read-out: Ki YTHDF1) of the same molecule?
A: 129 ± 6 pM

Q: For c1cncc(CNc2ccc(CNC3CC3)cn2)c1 [TR-YTH-05], which Ki (YTHDF2; [3]) is on record?
A: 70 ± 12 pM

Q: And the Ki (YTHDF2; read-out: Ki (pM) YTHDF2)?
A: 70 ± 12 pM

Q: And the Ki (YTHDF2; read-out: Ki YTHDF2)?
A: 70 ± 12 pM

Q: What about the Ki (YTHDF1; read-out: Ki (pM) YTHDF1) of the same molecule?
A: 90 ± 10 pM

Q: And the Ki (YTHDF1; read-out: Ki YTHDF1)?
A: 90 ± 10 pM

Q: For Fc1ccc(CNc2ccc(CNC3CC3)cn2)cc1F [TR-YTH-06], which Ki (YTHDF2; [3]) is on record?
A: 395 ± 51 pM

Q: What about the Ki (YTHDF2; read-out: Ki (pM) YTHDF2) of the same molecule?
A: 395 ± 51 pM

Q: And the Ki (YTHDF2; read-out: Ki YTHDF2)?
A: 395 ± 51 pM

Q: And the Ki (YTHDF1; read-out: Ki (pM) YTHDF1)?
A: 285 pM

Q: What about the Ki (YTHDF1; read-out: Ki YTHDF1) of the same molecule?
A: 285 ± 154 pM

Q: For FC(F)(F)c1ccc(CNc2ccc(CNC3CC3)cn2)cc1 [TR-YTH-07], which Ki (YTHDF2; [3]) is on record?
A: 77 ± 18 pM

Q: And the Ki (YTHDF2; read-out: Ki (pM) YTHDF2)?
A: 77 ± 18 pM

Q: And the Ki (YTHDF2; read-out: Ki YTHDF2)?
A: 77 ± 18 pM

Q: And the Ki (YTHDF1; read-out: Ki (pM) YTHDF1)?
A: 162 ± 30 pM

Q: What about the Ki (YTHDF1; read-out: Ki YTHDF1) of the same molecule?
A: 162 ± 30 pM

Q: What does the source list for Fc1ccc(CNc2ccc(CNC3CC3)cn2)cc1 [TR-YTH-08]?
A: Ki (YTHDF1; read-out: Ki (pM) YTHDF1): 880 ± 194 pM; Ki (YTHDF1; read-out: Ki YTHDF1): 880 ± 194 pM

Q: For Fc1cccc(F)c1CNc1ccc(CNC2CC2)cn1 [TR-YTH-09], which Ki (YTHDF2; [3]) is on record?
A: 172 ± 49 pM

Q: And the Ki (YTHDF2; read-out: Ki (pM) YTHDF2)?
A: 172 ± 49 pM

Q: And the Ki (YTHDF2; read-out: Ki YTHDF2)?
A: 172 ± 49 pM

Q: And the Ki (YTHDF1; read-out: Ki (pM) YTHDF1)?
A: 281 ± 9 pM

Q: And the Ki (YTHDF1; read-out: Ki YTHDF1)?
A: 281 ± 9 pM

Q: For CN(Cc1ccc(C(F)(F)F)cc1)c1ccc(CNC2CC2)cn1 [TR-YTH-10], which Ki (YTHDF2; [3]) is on record?
A: 106 ± 26 pM

Q: And the Ki (YTHDF2; read-out: Ki (pM) YTHDF2)?
A: 106 ± 26 pM

Q: And the Ki (YTHDF2; read-out: Ki YTHDF2)?
A: 106 ± 26 pM

Q: And the Ki (YTHDF1; read-out: Ki (pM) YTHDF1)?
A: 615 ± 107 pM

Q: What about the Ki (YTHDF1; read-out: Ki YTHDF1) of the same molecule?
A: 615 ± 107 pM

Q: Which results are given for Cc1ccc(Nc2ccc(CNC3CC3)cn2)cc1C [TR-YTH-12]?
A: Ki (YTHDF2; [3]): 850 ± 115 pM; Ki (YTHDF2; read-out: Ki (pM) YTHDF2): 850 ± 115 pM; Ki (YTHDF2; read-out: Ki YTHDF2): 850 ± 115 pM; Ki (YTHDF1; read-out: Ki (pM) YTHDF1): 1420 ± 375 pM; Ki (YTHDF1; read-out: Ki YTHDF1): 1420 ± 375 pM

Q: For Fc1ccnc(Nc2ccc(CNC3CC3)cn2)c1 [TR-YTH-15], which Ki (YTHDF2; [3]) is on record?
A: 145 ± 33 pM

Q: And the Ki (YTHDF2; read-out: Ki (pM) YTHDF2)?
A: 145 ± 33 pM

Q: And the Ki (YTHDF2; read-out: Ki YTHDF2)?
A: 145 ± 33 pM

Q: What about the Ki (YTHDF1; read-out: Ki (pM) YTHDF1) of the same molecule?
A: 236 ± 51 pM

Q: And the Ki (YTHDF1; read-out: Ki YTHDF1)?
A: 236 ± 51 pM

Q: With COc1ccc(CNc2ccc(CN(C)C)cn2)cc1 [TR-YTH-16] as the molecule, how does the Ki (YTHDF2; [3]) read?
A: 179 ± 36 pM

Q: What about the Ki (YTHDF2; read-out: Ki (pM) YTHDF2) of the same molecule?
A: 179 ± 36 pM

Q: And the Ki (YTHDF2; read-out: Ki YTHDF2)?
A: 179 ± 36 pM

Q: What about the Ki (YTHDF1; read-out: Ki (pM) YTHDF1) of the same molecule?
A: 214 ± 50 pM

Q: And the Ki (YTHDF1; read-out: Ki YTHDF1)?
A: 214 ± 50 pM

Q: Which Ki (YTHDF2; [3]) does the source give for CC(Nc1ccc(CN(C)C)cn1)c1ccccc1 (stereo not shown) [TR-YTH-18] here?
A: 95 ± 13 pM

Q: What about the Ki (YTHDF2; read-out: Ki (pM) YTHDF2) of the same molecule?
A: 95 ± 13 pM

Q: What about the Ki (YTHDF2; read-out: Ki YTHDF2) of the same molecule?
A: 95 ± 13 pM

Q: What about the Ki (YTHDF1; read-out: Ki (pM) YTHDF1) of the same molecule?
A: 209 ± 27 pM

Q: And the Ki (YTHDF1; read-out: Ki YTHDF1)?
A: 209 ± 27 pM

Q: What does the source list for CN(C)Cc1ccc(NCc2ccc(F)cc2)nc1 [TR-YTH-19]?
A: Ki (YTHDF2; [3]): 107 ± 19 pM; Ki (YTHDF2; read-out: Ki (pM) YTHDF2): 107 ± 19 pM; Ki (YTHDF2; read-out: Ki YTHDF2): 107 ± 19 pM; Ki (YTHDF1; read-out: Ki (pM) YTHDF1): 391 ± 66 pM; Ki (YTHDF1; read-out: Ki YTHDF1): 391 ± 66 pM

Q: Which EC50 ([2]; Breast) does the source give for N.N.[Cl][Pt][Cl] [cisplatin] here?
A: 5000 nM

Q: And the EC50 ([2]; Esophagoel)?
A: 8000 nM

Q: And the EC50 ([2]; Gastric)?
A: 13500 to 25000 nM

Q: And the EC50 ([2]; Ovarian)?
A: 2000 to 40000 nM

Q: What about the EC50 ([2]; Pancreatic) of the same molecule?
A: 20000 to 26000 nM

Q: Which EC50 ([2]; Pancreatic) does the source give for Nc1ccn([C@@H]2O[C@H](CO)[C@@H](O)C2(F)F)c(=O)n1 [gemcitabine] here?
A: < 1000 nM

Q: Which EC50 ([2]; Breast) does the source give for CS(=O)(=O)CCNCc1ccc(-c2ccc3ncnc(Nc4ccc(OCc5cccc(F)c5)c(Cl)c4)c3c2)o1 [lapatinib] here?
A: 137000 nM

Q: For O=C1[O][Pt]2([NH][C@@H]3CCCC[C@H]3[NH]2)[O]C1=O [oxalplatin, oxaliplatin], which EC50 ([2]; Colon) is on record?
A: 2000 to 20000 nM

Q: What about the EC50 ([2]; Esophagoel) of the same molecule?
A: 37000 nM

Q: And the EC50 ([2]; Pancreatic)?
A: 3500 to 10000 nM
